Data published in patent publication US6872850B2, “Small molecule inhibitors of secretion of proteins encoded by ARE-mRNAs” (Message Pharmaceuticals, priority 2001, dated 2005).

What was measured:
3′ UTR of the TNFα gene = experiment: cell-based luciferase reporter assay, 5B cell line (luciferase gene with entire 3′ UTR of the TNFα gene); set-up: species or system mouse; conditions: for Luciferase 5B (% of DMSO control): 1 h, then LPS, 5B cell line
Protocol: The candidate compounds were tested in a high-throughput, cell-based luciferase reporter assay. For this assay, a commercially available mouse macrophage Raw 264.7 cell line was stably transfected with a construct containing the CMV promoter operably linked to the luciferase gene which was modified using standard molecular biology techniques to contain the entire 3′ UTR of the TNFα gene. This 3′ UTR is important for the stability and translation of TNFα in cells. To control for effects of candidate compounds that are not specific for TNFα, a control cell line, called “3B,” was generated by stably transfecting the 264.7 cell line with a commercially available construct containing the luciferase gene (without the addition of the heterologous 3′ UTR of the TNFα gene) under the regulation of the CMV promoter.
[…] Then, lipopolysaccharide (LPS) was added to stimulate TNFα secretion. Luciferase activity was measured by determining the luminescence intensity due to the reaction of lucifern, ATP, Mg^2+, and molecular O2 (see, for example, Ausubel et al., supra). The luciferase activity in a cell incubated with a candidate compound was reported as a percentage of the luciferase activity for the corresponding cell incubated with DMSO vehicle only.
After correction for any effect caused by the administration of the DMSO only vehicle control, the effect of a candidate compound on luciferase activity in the 3B control cell line represents the global effect of the compound on any step required for expression or activity of luciferase protein, such as luciferase gene transcription, mRNA processing, mRNA stability, translation, protein stability, or enzymatic activity. […] In this case, the luciferase activity in the 5B cell line treated with the DMSO vehicle control is similar to the luciferase activity in the control 3B cell line treated with the candidate compound. Thus, the response of the 5B cell line (as a percent of the DMSO control) and the ratio of the luciferase activity in the 5B cell line (as a percent of the DMSO control) to the luciferase activity in the control 3B cell line (as a percent of the DMSO control) are similar. In desirable embodiments, the response of the 5B cell line and the 5B/3B ratio differ by less than 50, 40, 30, 20, 10, or 5%.

TNFα = experiment: ELISA of TNFα secreted into the media after LPS; assay type: cell-based; conditions: 10 μM compound, 1 h, then LPS
Protocol: The ability of candidate compounds to reduce the amount of secreted TNFα was also directly tested using an ELISA assay. […] A standard ELISA analysis was used to measure the amount of TNFα secreted into the media (see, for example, Ausubel et al., supra). The effect of a candidate compound on TNFα secretion in this assay is reported in the following tables as a percentage of the amount of TNFα secreted by a control cell that was administered a DMSO vehicle control only.

[1] = 10 μM compound, ratio of 5B to control 3B cell line

Row | Structure (SMILES) | effect on luciferase activity in the 5B cell line (luciferase assay), in words (3′ UTR of the TNFα gene) | Luciferase 5B (% of DMSO control) (3′ UTR of the TNFα gene; 10 μM compound) | Luciferase 5B/3B (% of DMSO control 5B)/(% of DMSO control 3B) (3′ UTR of the TNFα gene; [1]) | TNFα Secretion (% of DMSO control) (TNFα) | Luciferase 5B/3B (% of DMSO control 5B)/(% of DMSO control 3B) (3′ UTR of the TNFα gene; 10 μM compound (Table 11))
1 | CC(=NNC(=N)N)c1cccc(C(=O)NC(C)C(=O)N2CCN(C(=O)C(Cc3ccccc3)NC(=O)c3ccc(C(=NNC(=N)N)c4ccccc4)cc3)CC2)c1 (mixture of isomers) [MES 11465] | decrease TNFα secretion | 72 % of DMSO control | 71 (% of DMSO control 5B)/(% of D | – | –
2 | CC(C)CC(NC(=O)c1ccc(C(=NNC(=N)N)c2ccccc2)cc1)C(=O)N1CCN(C(=O)C(Cc2ccccc2)NC(=O)CCc2cccnc2)CC1 (mixture of isomers) [MES 10234] | – | 60 % of DMSO control | 58 (% of DMSO control 5B)/(% of D | – | –
3 | CC(C)C[C@H](NC(=O)c1ccccc1)C(=O)N1CCN(C(=O)[C@H](Cc2ccccc2)NC(=O)c2ccc(/C(=N\N=C(N)N)c3ccccc3)cc2)CC1.O=C(O)C(F)(F)F [MES 10250, (Z)-Guanylhydrazone of 1-[(S)-N-(4-benzoylbenzoyl)-2-amino-3-phenylpropanoyl]-4-[(2S)-N-(benzoyl)-2-amino-4-methylpentanoyl]-1,4-piperazine trifluoroacetate] | – | 37 % of DMSO control | 49 (% of DMSO control 5B)/(% of D | 40 % of DMSO control | –
4 | CC(C)CC(NC(=O)c1ccc(C(=NNC(=N)N)c2ccccc2)cc1)C(=O)N1CCN(C(=O)C(Cc2ccccc2)NC(=O)c2ccccc2)CC1 (centres unmarked) [MES 10248] | – | 56 % of DMSO control | 72 (% of DMSO control 5B)/(% of D | 39 % of DMSO control | –
5 | CC(C)CC(NC(=O)c1ccccc1)C(=O)N1CCN(C(=O)C(Cc2ccccc2)NC(=O)c2ccc(C(=NNC(=N)N)c3ccccc3)cc2)CC1 (mixture of isomers) [MES 10222] | – | 36 % of DMSO control | 49 (% of DMSO control 5B)/(% of D | 49 % of DMSO control | –
6 | CC(C)CC(NC(=O)c1ccc2ccccc2c1)C(=O)N1CCN(C(=O)C(Cc2ccccc2)NC(=O)c2ccc(C(=NNC(=N)N)c3ccccc3)cc2)CC1 (mixture of isomers) [MES 10228] | – | 38 % of DMSO control | 40 (% of DMSO control 5B)/(% of D | – | –
7 | CC(=NNC(=N)N)c1cccc(C(=O)NC(CC(C)C)C(=O)N2CCN(C(=O)C(Cc3ccc([N+](=O)[O-])cc3)NC(=O)c3ccc(C(=NNC(=N)N)c4ccccc4)cc3)CC2)c1 (mixture of isomers) [MES 10257] | – | 34 % of DMSO control | 60 (% of DMSO control 5B)/(% of DMSO control 3B) | – | –
8 | CC(C)CC(NC(=O)c1ccc(C(=NNC(=N)N)c2ccccc2)cc1)C(=O)N1CCN(C(=O)C(Cc2ccc(Cl)cc2)NC(=O)c2ccc(C(=NNC(=N)N)c3ccccc3)cc2)CC1 (mixture of isomers) [MES 10192] | – | 37 % of DMSO control | 47 (% of DMSO control 5B)/(% of DMSO control 3B) | 17 % of DMSO control | –
9 | CC(=NNC(=N)N)c1cccc(C(=O)NC(CC2CCCCC2)C(=O)N2CCN(C(=O)C(Cc3ccccc3)NC(=O)c3ccc(C(=NNC(=N)N)c4ccccc4)cc3)CC2)c1 (mixture of isomers) [MES 10181] | inhibited TNFα secretion | 17 % of DMSO control | 49 (% of DMSO control 5B)/(% of DMSO control 3B) | – | –
10 | C/C(=N\N=C(N)N)c1cccc(C(=O)NCCNC(=O)[C@H](Cc2ccccc2)NC(=O)c2ccc(C(=O)c3ccccc3)cc2)c1.O=C(O)C(F)(F)F [MES 10093, (4-E)-Guanylhydrazone of 1-[(S)-N-(4-benzoylbenzoyl)-2-amino-3-phenylpropanoyl]-4-(3-acetylbenzoyl)-1,4-diazabutane trifluoroacetate] | – | – | – | – | 47 (% of DMSO control 5B)/(% of D
11 | CC(=NNC(=N)N)c1cccc(C(=O)NC(C(=O)N2CCN(C(=O)C(Cc3ccccc3)NC(=O)c3ccc(C(=NNC(=N)N)c4ccccc4)cc3)CC2)C(C)C)c1 (mixture of isomers) [MES 10183] | inhibited TNFα secretion | 58 % of DMSO control | 57 (% of DMSO control 5B)/(% of DMSO control 3B) | – | –
12 | CC(C)CC(NC(=O)c1ccc(I)cc1)C(=O)N1CCN(C(=O)C(Cc2ccccc2)NC(=O)c2ccc(C(=NNC(=N)N)c3ccccc3)cc2)CC1 (mixture of isomers) [MES 10226] | greatest inhibitor activity | 23 % of DMSO control | 26 (% of DMSO control 5B)/(% of D | – | –
13 | CC(=O)N[C@@H](Cc1ccccc1)C(=O)N1CCN(C(=O)[C@H](CC(C)C)NC(=O)c2cccc(/C(C)=N/NC(=N)N)c2)CC1 [MES 10306] | – | 85 % of DMSO control | 125 (% of DMSO control 5B)/(% of D | – | –
14 | CC(C)CC(NC(=O)c1ccc([N+](=O)[O-])cc1)C(=O)N1CCN(C(=O)C(Cc2ccccc2)NC(=O)c2ccc(C(=NNC(=N)N)c3ccccc3)cc2)CC1 (mixture of isomers) [MES 10224] | – | 36 % of DMSO control | 37 (% of DMSO control 5B)/(% of D | – | –
15 | CC(=NN=C(N)N)c1cccc(C(=O)NC(CC(C)C)C(=O)N2CCN(C(=O)C(CC(C)C)NC(=O)c3ccc(C(=NN=C(N)N)c4ccccc4)cc3)CC2)c1 (mixture of isomers) [MES 11408] | decrease TNFα secretion | 59 % of DMSO control | 54 (% of DMSO control 5B)/(% of D | – | –
16 | CC(C)CC(NC(=O)c1ccc(C(=NNC(=N)N)c2ccccc2)cc1)C(=O)N1CCN(C(=O)C(Cc2ccccc2)NC(=O)c2cnccn2)CC1 (mixture of isomers) [MES 10235] | – | 70 % of DMSO control | 75 (% of DMSO control 5B)/(% of D | – | –
17 | CCCCC(NC(=O)c1ccc(C(=NNC(=N)N)c2ccccc2)cc1)C(=O)N1CCN(C(=O)C(Cc2ccccc2)NC(=O)c2ccc(C(=NNC(=N)N)c3ccccc3)cc2)CC1 (mixture of isomers) [MES 10184] | – | 22 % of DMSO control | 35 (% of DMSO control 5B)/(% of DMSO control 3B) | – | –
18 | CC(=NN=C(N)N)c1cccc(C(=O)NC(CC(C)C)C(=O)NCCCNC(=O)C(C)NC(=O)c2ccc(C(=NN=C(N)N)c3ccccc3)cc2)c1 (mixture of isomers) [MES 11411] | decrease TNFα secretion | 65 % of DMSO control | 71 (% of DMSO control 5B)/(% of D | – | –
19 | CC(C)CC(NC(=O)c1ccc(Cl)cc1)C(=O)N1CCN(C(=O)C(Cc2ccccc2)NC(=O)c2ccc(C(=NNC(=N)N)c3ccccc3)cc2)CC1 (mixture of isomers) [MES 10227] | – | 34 % of DMSO control | 39 (% of DMSO control 5B)/(% of D | – | –
20 | O=C(N[C@@H](Cc1ccccc1)C(=O)N1CCN(C(=O)CCCC(=O)N2CCN(c3ccccc3)CC2)CC1)c1ccc(C(=O)c2ccccc2)cc1 [MES 10246] | – | 46 % of DMSO control | 74 (% of DMSO control 5B)/(% of D | – | –
21 | CC(NC(=O)c1ccc(C(=O)c2ccccc2)cc1)C(=O)N1CCN(C(=O)CCC(=O)N2CCN(c3ccccc3)CC2)CC1 (centres unmarked) [MES 10304] | – | 49 % of DMSO control | 64 (% of DMSO control 5B)/(% of D | – | –
22 | CN1CCN(C(=O)CCC(=O)N2CCN(C(=O)[C@H](Cc3ccccc3)NC(=O)c3ccc(C(=O)c4ccccc4)cc3)CC2)CC1 [MES 10301] | – | 76 % of DMSO control | 105 (% of DMSO control 5B)/(% of D | – | –
